Measurements from patent publication US8592463B2, “Hedgehog pathway antagonists and therapeutic applications thereof” (Siena Biotech S.p.A., priority 2007, dated 2013).

Key:
Smo receptor = molecular target: T1, Smo receptor (Homo sapiens, UniProt Q99835); test: Saturation binding of Bodipy-Cyclopamine to stable Smo-FLAG transfected cell line clone 3-5
T1 construct: expressed in transfected cells; host or cells: FlpIN293 (HEK293-derived)
Experimental: (§1) The interaction of compounds with the Smo receptor was tested by a displacement binding assay using fluorescent ligand for the Smo receptor (Bodipy-Cyclopamine, Toronto Research Chemical Inc, cat#B674800) as the labeled ligand to be displaced.
(§2) In order to determine the Kd (concentration of the ligand where 50% of the maximal binding is reached) and the Bmax (maximal amount of ligand which can bind specifically to the receptor in a biological preparation) of the fluorescent ligand, the Specific Binding (SB) was calculated by subtraction Non Specific Binding (NSB) from Total Binding (TB). The TB was determined by adding increasing concentration of Bodipy-Cyclopamine to the cells, while the NSB was determined by adding a mixture of increasing concentration of Bodipy-Cyclopamine with a saturating concentration of an well described antagonist (in this case, N-[3-(1H-benzimidazol-2-yl)-4-chlorophenyl]-3,5-dimethoxy-benzamide (Rubin et al. WO2003011219) at 10 μM was selected) to the cells. For each concentration of Bodipy-Cyclopamine, the SB was calculated by subtracting the value of NSB from TB. From the SB curve Bmax and Kd were calculated. […] The Ki is the concentration of non labeled ligand which inhibits 50% of the specific binding (SB) of the labeled ligand, and corrected for the effective used concentration of the labeled ligand. […]

[1] = test system: 293FlpIN/clone E-3 mock transfected cells; test: Saturation binding of Bodipy-Cyclopamine to stable mock transfected cell line clone E-3; parameters: species or system human
Experimental: as §1, §2

T1 sequence (Q99835 28-787): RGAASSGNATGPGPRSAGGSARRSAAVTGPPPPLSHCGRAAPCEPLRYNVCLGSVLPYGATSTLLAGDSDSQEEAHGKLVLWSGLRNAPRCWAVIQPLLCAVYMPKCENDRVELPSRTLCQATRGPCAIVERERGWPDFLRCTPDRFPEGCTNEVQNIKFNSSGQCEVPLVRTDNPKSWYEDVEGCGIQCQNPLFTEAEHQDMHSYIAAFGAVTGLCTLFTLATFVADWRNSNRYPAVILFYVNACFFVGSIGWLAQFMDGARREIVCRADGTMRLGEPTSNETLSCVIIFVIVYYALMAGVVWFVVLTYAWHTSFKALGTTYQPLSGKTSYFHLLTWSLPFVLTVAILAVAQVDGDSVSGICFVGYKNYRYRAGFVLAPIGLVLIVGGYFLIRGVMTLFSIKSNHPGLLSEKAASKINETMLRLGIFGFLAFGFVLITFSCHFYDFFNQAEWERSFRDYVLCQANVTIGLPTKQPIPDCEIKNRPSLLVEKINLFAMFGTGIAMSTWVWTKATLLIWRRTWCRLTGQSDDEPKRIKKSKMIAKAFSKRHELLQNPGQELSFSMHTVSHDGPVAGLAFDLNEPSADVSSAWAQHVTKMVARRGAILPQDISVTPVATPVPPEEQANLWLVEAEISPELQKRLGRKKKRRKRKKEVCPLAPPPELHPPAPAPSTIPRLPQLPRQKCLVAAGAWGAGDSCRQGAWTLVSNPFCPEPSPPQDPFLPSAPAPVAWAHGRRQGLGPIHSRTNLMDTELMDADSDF

## Bodipy-Cyclopamine
Smo receptor
  Kd: 44.3 nM
[1]
  Kd: 115 nM
